According to paper PMC7395068, “The evolution of strategies to minimise the risk of human drug-induced liver injury (DILI) in drug discovery and development” (Archives of Toxicology, 2020):
Where two headings read alike, the source gives them in different places.

Tests used:
PHH = conditions: cited from earlier work; for PHH/100uM, Proctor (2017): IC50 threshold 100 µM; for PHH ATP <100uM: In vitro Assay, ref Proctor 2017
hLiMTs [1] = assay: Combined HCI (HCS) and cellular ATP 3D assay in hLiMTs; conditions: for AC50 / minimal effective concentration: Homo sapiens; for hLiMTs <10 uM All: cut-off <10 uM
HepG2 cells [2] = conditions: In vitro Assay; ref O'Brien 2006; cited from earlier work
HepaRG spheroids = assay: Combined HCI (HCS) and cellular ATP 3D assay in HepaRG spheroids; conditions: for HepaRG <10 uM All: cut-off <10 uM; for AC50 / minimal effective concentration: Homo sapiens
hLiMTs [3] = conditions: cited from earlier work; for hLiMTs ATP <100uM: In vitro Assay, ref Proctor 2017; for hLiMTs/100uM, Proctor (2017): IC50 threshold 100 µM
[4] = tested on: isolated mouse liver mitochondria; conditions: In vitro Assay; ref Porceddu 2012; cited from earlier work
HepG2 cells [5] = conditions: In vitro Assay; ref Persson 2013; cited from earlier work
HepG2 cells [6] = conditions: In vitro Assay; ref Tolosa 2012; cited from earlier work
[7] = tested on: THLE-Null and THLE-3A4 cells; conditions: In vitro Assay; ref Gustafsson 2014; cited from earlier work
[8] = tested on: HepG2 cells, primary human hepatocytes; conditions: In vitro Assay; ref Garside 2014; cited from earlier work
human hepatocytes = conditions: In vitro Assay; ref Xu 2008; cited from earlier work
[9] = cited from earlier work
[10] = cited from earlier work; remark: listed apart in the source
[11] = FDA drug labelling score, scale 1-8; ref Chen 2011; cited from earlier work
[12] = tested on: HepG2 C3A spheroid, BSEP, Glu/Gal in HepG2 cells, bioactivation; conditions: cited from earlier work
[13] = read-out: Human plasma Cmax; total plasma Cmax.tot, median of 9 literature references; cited from earlier work
[14] = 2D PHH, ATP, ref Proctor et al. 2017
[15] = hLiMTs, ATP, ref Proctor et al. 2017
[16] = Microtissue model structural based (HCI), combined HCS and ATP, MEC < 25 × Cmax.tot cut-off

## CCCCc1oc2ccccc2c1C(=O)c1cc(I)c(OCCN(CC)CC)c(I)c1 [amiodarone]
PHH; [14]
  PHH/100uM, Proctor (2017): +VE (IC50 threshold of 100 µM)
PHH
  PHH ATP <100uM: +VE (IC50 threshold of 100 µM)
hLiMTs [1]; read-out: ATP endpoint AC50
  AC50: 5.33 µM
hLiMTs [1]; read-out: ATP endpoint MEC
  minimal effective concentration: 4.58 µM
hLiMTs [1]; read-out: HCS endpoint AC50
  AC50: 28.2 µM
hLiMTs [1]; read-out: HCS endpoint MEC
  minimal effective concentration: 6.51 µM
hLiMTs [1]; hLiMTs, all endpoints
  hLiMTs <10 uM All: +ve (<10 uM)
HepG2 cells [2]
  Structural based (HCI): +VE
HepaRG spheroids; HepaRG, all endpoints
  HepaRG <10 uM All: +ve (<10 uM)
HepaRG spheroids; HepaRG, read-out: ATP endpoint AC50
  AC50: 112 µM
HepaRG spheroids; HepaRG, read-out: ATP endpoint MEC
  minimal effective concentration: 98.8 µM
HepaRG spheroids; HepaRG, read-out: HCS endpoint AC50
  AC50: 13.1 µM
HepaRG spheroids; HepaRG, read-out: HCS endpoint MEC
  minimal effective concentration: 4.62 µM
hLiMTs [3]
  hLiMTs ATP <100uM: +VE (IC50 threshold of 100 µM)
hLiMTs [3]; [15]
  hLiMTs/100uM, Proctor (2017): +VE (IC50 threshold of 100 µM)
[4]
  in vitro data EC20<=2uM: +VE
HepG2 cells [5]
  Cluser analysis: +VE
  Structural based (HCI): +VE
HepG2 cells [6]
  Structural based (HCI): +VE
[7]
  THLE-Null: +VE

## CN(C)CCC=C1c2ccccc2CCc2ccccc21 [amitriptyline]
[8]
  Cluster 1-6 +VE Assay: +VE
Human hepatocytes
  Structural based (HCI): -VE
PHH
  PHH ATP <100uM: +VE (IC50 threshold of 100 µM)
[9]; […]
  In vivo DILI: +VE
[9]; ref Garside 2014
  In vivo DILI: +VE
[9]; ref O'Brien 2006
  In vivo DILI: +VE
[9]; ref Persson 2013
  In vivo DILI: +VE
[9]; ref Proctor 2017
  In vivo DILI: +VE
[9]; ref Tolosa 2012
  In vivo DILI: +VE
[9]; ref Xu 2008
  In vivo DILI: -VE
HepG2 cells [2]
  Structural based (HCI): -VE
[10]; ref Chen 2016
  DILI +VE (5-8), DILI -VE (-4): +VE
  DILI severity category: vLess-DILI-Concern
hLiMTs [3]
  hLiMTs ATP <100uM: +VE (IC50 threshold of 100 µM)
HepG2 cells [5]
  Cluser analysis: +VE
  Structural based (HCI): +VE
HepG2 cells [6]
  Structural based (HCI): +VE

## C[C@H]1c2cccc(O)c2C(=O)C2=C(O)[C@]3(O)C(=O)C(C(N)=O)=C(O)[C@@H](N(C)C)[C@@H]3[C@@H](O)[C@@H]21 [doxycycline]
[9]; ref Tolosa 2012
  In vivo DILI: +VE
[10]; binary in vivo human DILI call, ref Chen 2016
  DILI +VE (5-8), DILI -VE (-4): +VE
[10]; human DILI, LTKB DILIrank category, ref Chen 2016
  DILI severity category: vLess-DILI-Concern
HepG2 cells [6]
  Structural based (HCI): +VE
[11]
  DILI Score (FDA) (1-8): 3

## Cc1c(-c2ccccc2)oc2c(C(=O)OCCN3CCCCC3)cccc2c1=O [flavoxate]
PHH; 2D PHH, ATP, IC50 < 100 × Cmax.tot, ref Proctor et al. 2017
  PHH/100xCmax, Proctor (2017): -VE
PHH; [14]
  PHH/100uM, Proctor (2017): -VE
PHH
  PHH ATP <100uM: -VE
[12]; Bayesian modeling, ref Williams et al. 2019
  Bayesian Machine Learning DILI prediction, Williams (2019): -VE
[12]; ref Williams 2019
  Bayesian Machine Learning: -VE
hLiMTs [1]; read-out: ATP endpoint AC50
  AC50: 127 µM
hLiMTs [1]; read-out: ATP endpoint MEC
  minimal effective concentration: 111 µM
hLiMTs [1]; [16]
  DILI prediction hLiMTs (HCS-MEC): -VE
hLiMTs [1]; hLiMTs, ATP endpoint, cut-off <25x Avg Cmax
  hLiMTs <25x Avg Cmax ATP: -ve
hLiMTs [1]; hLiMTs, ATP endpoint, cut-off <100x Avg Cmaxu
  hLiMTs <100x Avg Cmaxu ATP: -ve
hLiMTs [1]; hLiMTs, HCS endpoints, cut-off <25x Avg Cmax
  hLiMTs <25x Avg Cmax HCS: -ve
hLiMTs [1]; hLiMTs, HCS endpoints, cut-off <100x Avg Cmaxu
  hLiMTs <100x Avg Cmaxu HCS: -ve
hLiMTs [1]; hLiMTs, all endpoints (ATP and HCS), cut-off <25x Avg Cmax
  hLiMTs <25x Avg Cmax All: -ve
hLiMTs [1]; hLiMTs, all endpoints, Cmax max used
  hLiMTs Cmax max All: -ve
hLiMTs [1]; hLiMTs, all endpoints, Cmax min used
  hLiMTs Cmax min All: -ve
hLiMTs [1]; hLiMTs, all endpoints
  hLiMTs <10 uM All: -ve
hLiMTs [1]; hLiMTs, all endpoints, cut-off <100x Avg Cmaxu
  hLiMTs <100x Avg Cmaxu All: -ve
[9]; Chen et al. 2016 or literature alignment, ref Chen et al. 2016
  Assigned DILI category: 1
[9]; ref Proctor 2017
  In vivo DILI: -VE
[9]; ref Williams 2019
  In vivo DILI: -VE
[10]; LTKB DILIrank category, ref Chen et al. 2016
  DILI severity category (Chen et al. [2016]): No
[10]; human DILI classification, LTKB DILIrank, ref Chen et al. 2016
  DILI severity category (Chen 2016): No
[10]; human DILI severity, ref Chen et al.
  DILI severity category: No
[10]; ref Chen 2016
  DILI +VE (5-8), DILI -VE (-4): -VE
  DILI severity category: vNo-DILI-Concern
HepaRG spheroids; HepaRG, ATP endpoint, cut-off <25x Avg Cmax
  HepaRG <25x Avg Cmax ATP: -ve
HepaRG spheroids; HepaRG, ATP endpoint, cut-off <100x Avg Cmaxu
  HepaRG <100x Avg Cmaxu ATP: -ve
HepaRG spheroids; HepaRG, HCS endpoints, cut-off <25x Avg Cmax
  HepaRG <25x Avg Cmax HCS: -ve
HepaRG spheroids; HepaRG, HCS endpoints, cut-off <100x Avg Cmaxu
  HepaRG <100x Avg Cmaxu HCS: -ve
HepaRG spheroids; HepaRG, all endpoints (ATP and HCS), cut-off <25x Avg Cmax
  HepaRG <25x Avg Cmax All: -ve
HepaRG spheroids; HepaRG, all endpoints, Cmax max used
  HepaRG Cmax max All: -ve
HepaRG spheroids; HepaRG, all endpoints, Cmax min used
  HepaRG Cmax min All: -ve
HepaRG spheroids; HepaRG, all endpoints
  HepaRG <10 uM All: -ve
HepaRG spheroids; HepaRG, all endpoints, cut-off <100x Avg Cmaxu
  HepaRG <100x Avg Cmaxu All: -ve
HepaRG spheroids; [16]
  DILI prediction HepaRG spheroids (HCS-MEC): -VE
hLiMTs [3]
  hLiMTs ATP <100uM: -VE
hLiMTs [3]; hLiMTs, ATP, IC50 < 100 × Cmax.tot, ref Proctor et al. 2017
  hLiMTs/100xCmax, Proctor (2017): -VE
hLiMTs [3]; [15]
  hLiMTs/100uM, Proctor (2017): -VE
[13]
  Cmax: 1790 nM

## CC1=CC(=O)c2ccccc2C1=O [menadione]
[9]; ref O'Brien 2006
  In vivo DILI: -VE
[9]; ref Persson 2013
  In vivo DILI: +VE
[9]; ref Tolosa 2012
  In vivo DILI: +VE
HepG2 cells [2]
  Structural based (HCI): +VE (lowest HCI endpoint IC50 (or in the absence of dose–response < 100 µM) < 30 × total human plasma exposure levels (Cmax.tot))
HepG2 cells [5]
  Cluser analysis: +VE
  Structural based (HCI): +VE
HepG2 cells [6]
  Structural based (HCI): +VE
